Counter-ions that a name gives are not always drawn.
System: HCT116
Settings: 72 h
How it was run: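 Each well of the 1536-well plates received 250 HCT116 cells, which attached over 5 h. Luminescence was measured with CellTiter-Glo, scaled with vehicle as 0% and positive control as -100%, and pattern-corrected. A four-parameter Hill fit yielded IC50 and maximal efficacy.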

| IC50 cell viability (ICRF193 0 nM) [µM] | IC50 cell viability (ICRF193 200 nM) [µM] | Compound |
| --- | --- | --- |
| > 45.8 | > 45.8 | CCOc1cc2ncc(C#N)c(Nc3ccc(OCc4ccccn4)c(Cl)c3)c2cc1NC(=O)/C=C/CN(C)C [Neratinib] |
| > 45.8 | > 45.8 | CCN1CCC[C@H]1CNC(=O)c1cc(S(N)(=O)=O)ccc1OC [Levosulpiride] |
| > 45.8 | > 45.8 | CCN(CC)CCOC(=O)C1(C2CCCCC2)CCCCC1 [Dicyclomine] |
| > 45.8 | > 45.8 | Clc1cccc(C(c2ccc3[nH]cnc3c2)n2ccnc2)c1 (configuration not stated) [Liarozole] |
| > 45.8 | > 45.8 | CC(=O)CC/C=C(\C)CC/C=C(\C)CC/C=C(\C)CCC=C(C)C [Teprenone] |
| > 45.8 | > 45.8 | O=C(O)CN(CCN(CC(=O)O)CC(=O)O)CCN(CC(=O)O)CC(=O)O [Pentetic acid] |
| > 45.8 | > 45.8 | O[C@@H]1CO[C@H]2[C@@H]1OC[C@@H]2O [Isosorbide] |
| > 45.8 | > 45.8 | O=S(=O)(O)OC[C@H]1O[C@@](COS(=O)(=O)O)(O[C@H]2O[C@H](COS(=O)(=O)O)[C@@H](OS(=O)(=O)O)[C@H](OS(=O)(=O)O)[C@H]2OS(=O)(=O)O)[C@@H](OS(=O)(=O)O)[C@@H]1OS(=O)(=O)O [Sucrose octasulfate, sodium salt] |
| > 45.8 | > 45.8 | CCOC(=O)C1=C[C@]2(CC)CCCN3CCc4c(n1c1ccccc41)[C@@H]32 [Vinpocetine] |
| > 45.8 | > 45.8 | CC(C)(C)NCC(O)c1cc(O)cc(O)c1 (configuration not stated) [Terbutaline hemisulfate] |
| > 45.8 | > 45.8 | CC1(C)O[C@@H]2C[C@H]3[C@@H]4CCC5=CC(=O)C=C[C@]5(C)[C@@]4(F)[C@@H](O)C[C@]3(C)[C@]2(C(=O)CO)O1 [Triamcinolone acetonide] |
| > 45.8 | > 45.8 | O=C(O)c1cc(/N=N/c2ccc(O)c(C(=O)O)c2)ccc1O [Olsalazine sodium] |
| > 45.8 | > 45.8 | CN(C)C(=O)c1cc2cnc(Nc3ccc(N4CCNCC4)cn3)nc2n1C1CCCC1 [Ribociclib (LEE011)] |
| > 45.8 | > 45.8 | CO[C@@]12[C@H](COC(N)=O)C3=C(C(=O)C(C)=C(N)C3=O)N1C[C@@H]1N[C@@H]12 [Mitomycin C] |
| > 45.8 | > 45.8 | Cc1cccc(C)c1OCC(C)N (configuration not stated) [Mexiletene hydrochloride] |
| > 45.8 | > 45.8 | CCCCS(=O)(=O)N[C@@H](Cc1ccc(OCCCCC2CCNCC2)cc1)C(=O)O [Tirofiban hydrochloride monohydrate] |
| > 45.8 | > 45.8 | CCCCCCCCCCCCCC(=O)OC(C)C [Isopropyl tetradecanoic acid] |
| > 45.8 | > 45.8 | CC(C)(C)C(=O)OCC(=O)[C@H]1CC[C@H]2[C@@H]3CCC4=CC(=O)CC[C@]4(C)[C@H]3CC[C@]12C [Desoxycorticosterone Pivalate] |
| > 45.8 | > 45.8 | NCCCC(O)(P(=O)(O)O)P(=O)(O)O [ALENDRONATE SODIUM] |

| IC50 cell viability (ICRF193 0 nM) [µM] | IC50 cell viability (ICRF193 200 nM) [µM] | Compound |
| --- | --- | --- |
| > 45.8 | > 45.8 | CS(=O)(=O)n1cc2c(n1)CN([C@H]1CO[C@H](c3cc(F)ccc3F)[C@@H](N)C1)C2 [MK-3102] |
| > 45.8 | > 45.8 | CCCCCCCCCCCCCCCCCC(=O)NCCCC[C@H](NC(=O)CC[C@@H](NC(=O)[C@H](C)NC(=O)[C@@H](C)O[C@H]1[C@H](O)[C@@H](CO)OC(O)[C@@H]1NC(C)=O)C(N)=O)C(=O)O (some centres not stated) [ROMURTIDE] |
| > 45.8 | > 45.8 | O=C(N[C@H](CO)[C@H](O)c1ccc([N+](=O)[O-])cc1)C(Cl)Cl [Chloramphenicol] |
| > 45.8 | > 45.8 | Cc1cc(OI)c(C(C)C)cc1-c1cc(C(C)C)c(OI)cc1C [Thymol iodide] |
| > 45.8 | > 45.8 | NC(=O)c1cc[n+](CC2=C(C(=O)[O-])N3C(=O)[C@@H](NC(=O)[C@@H](c4ccccc4)S(=O)(=O)O)[C@H]3SC2)cc1 [Cefsulodin Sodium Salt] |
| > 45.8 | > 45.8 | O=C(O)COCCN1CCN(C(c2ccccc2)c2ccc(Cl)cc2)CC1 (configuration not stated) [CETIRIZINE HYDROCHLORIDE] |
| > 45.8 | > 45.8 | CCCCC(CC)COC(=O)C=Cc1ccc(OC)cc1 (configuration not stated) [Octinoxate] |
| > 45.8 | > 45.8 | COc1cc2c(cc1OC)[C@H]1C[C@@H](OC(=O)[C@@H](N)C(C)C)[C@H](CC(C)C)CN1CC2 [Valbenazine] |
| > 45.8 | > 45.8 | COc1ccc2c(c1)c(CC(=O)O)c(C)n2C(=O)c1ccc(Cl)cc1 [Indomethacin] |
| > 45.8 | > 45.8 | CC(C)(O)CNc1nc(Nc2ccnc(C(F)(F)F)c2)nc(-c2cccc(C(F)(F)F)n2)n1 [Enasidenib] |
| > 45.8 | > 45.8 | NNCCc1ccccc1 [Phenelzine] |
| > 45.8 | > 45.8 | COc1ccc(NS(=O)(=O)c2ccc(N)cc2)nn1 [Sulfamethoxypyridazine] |
| > 45.8 | > 45.8 | CN(C)CCCC1(c2ccc(F)cc2)OCc2cc(C#N)ccc21 (configuration not stated) [Citalopram hydrobromide] |
| > 45.8 | > 45.8 | CN(CCCCCCCCCCN(C)C(=O)Oc1cccc([N+](C)(C)C)c1)C(=O)Oc1cccc([N+](C)(C)C)c1 [Demecarium bromide] |
| > 45.8 | > 45.8 | NS(=O)(=O)c1cc(Cl)c(Cl)c(S(N)(=O)=O)c1 [Diclofenamide] |
| > 45.8 | > 45.8 | CCCCOc1ccc(CC(=O)NO)cc1 [Bufexamac] |
| > 45.8 | > 45.8 | CC(=O)O[C@]1(C(C)=O)CC[C@H]2[C@@H]3C=C(C)C4=CC(=O)CC[C@@H]4[C@H]3CC[C@@]21C [Nomegestrol acetate] |
| > 45.8 | > 45.8 | CC(C)(S)C(=O)N[C@@H](CS)C(=O)O [Bucillamine] |
| > 45.8 | > 45.8 | CCCCCOc1ccc(-c2cc(-c3ccc(C(=O)N[C@H]4C[C@@H](O)[C@@H](O)NC(=O)[C@@H]5[C@@H](O)[C@@H](C)CN5C(=O)[C@H]([C@H](O)CC(N)=O)NC(=O)[C@H]([C@H](O)[C@@H](O)c5ccc(O)c(OS(=O)(=O)O)c5)NC(=O)[C@@H]5C[C@@H](O)CN5C(=O)[C@H]([C@@H](C)O)NC4=O)cc3)no2)cc1 [Micafunginsodium] |

| IC50 cell viability (ICRF193 0 nM) [µM] | IC50 cell viability (ICRF193 200 nM) [µM] | Compound |
| --- | --- | --- |
| > 45.8 | > 45.8 | CCc1ccc(Nc2c(F)c(F)cc(F)c2F)c(CC(=O)O)c1 [ROBENACOXIB] |
| > 45.8 | > 45.8 | C=CCCCCCCCCC(=O)[O-].C=CCCCCCCCCC(=O)[O-].[Ca+2] [Calcium undecylenate] |
| > 45.8 | > 45.8 | CC1(C)C2CCC1(C)C(O)C2 (configuration not stated) [BORNEOL] |
| > 45.8 | > 45.8 | CCCN(CCC)S(=O)(=O)c1ccc(C(=O)O)cc1 [Probenecid] |
| > 45.8 | > 45.8 | CCCCN1C[C@H](O)[C@@H](O)[C@H](O)[C@H]1CO [Miglustat] |
| > 45.8 | > 45.8 | CCC(NC(C)C)C(O)c1ccc(O)c(O)c1 (configuration not stated) [ISOETHARINE MESYLATE] |
| > 45.8 | > 45.8 | CCCN1CCCC[C@H]1C(=O)Nc1c(C)cccc1C [Ropivacaine hydrochloride] |
| > 45.8 | > 45.8 | CCN(CC)CC#CCOC(=O)C(O)(c1ccccc1)C1CCCCC1 (configuration not stated) [Oxybutynin chloride] |
| > 45.8 | > 45.8 | NC[C@H]1CC[C@H](C(=O)O)CC1 [TRANEXAMIC ACID] |
| > 45.8 | > 45.8 | C[C@H](/C=C/[C@H](C)C(C)(C)O)[C@H]1CC[C@H]2/C(=C/C=C3C[C@@H](O)C[C@H](O)C3)CCC[C@]12C [Paricalcitol-D6] |
| > 45.8 | > 45.8 | NC(=O)c1cc[n+](CC2=C(C(=O)[O-])N3C(=O)[C@@H](NC(=O)Cc4cccs4)[C@H]3SC2)cc1 [Cefalonium] |
| > 45.8 | > 45.8 | C[C@]12CC[C@@H]3c4ccc(O)cc4CC[C@H]3[C@@H]1C[C@@H](O)[C@@H]2O [Estriol] |
| > 45.8 | > 45.8 | CC(=O)Nc1ccc(OC(=O)c2ccccc2OC(C)=O)cc1 [Benorylate] |
| > 45.8 | > 45.8 | CC=CC1=C(C(=O)O)N2C(=O)[C@@H](NC(=O)[C@H](N)c3ccc(O)cc3)[C@H]2SC1 [Cefprozil] |
| > 45.8 | > 45.8 | C[Si](C)(C)O[Si](C)(C)O[Si](C)(C)C [Trisiloxane, octamethyl-] |
| > 45.8 | > 45.8 | CN(C)C(=N)NC(=N)N [Metformin] |
| > 45.8 | > 45.8 | CCOC(CN1CCN(CC(C)C(=O)c2ccccc2)CC1)c1ccccc1 (configuration not stated) [Eprazinone dihydrochloride] |
| > 45.8 | > 45.8 | NCCNCCNCCNCCN [Tetraethylenepentamine] |

| Compound | IC50 cell viability (ICRF193 0 nM) [µM] | IC50 cell viability (ICRF193 200 nM) [µM] |
| --- | --- | --- |
| O=[N+]([O-])C(Br)(CO)CO [2-Bromo-2-nitro-1,3-propanediol] | > 45.8 | > 45.8 |
| Cc1ncc(CNC(=O)N(CCCl)N=O)c(N)n1 [Nimustine] | > 45.8 | > 45.8 |
| CC(Cc1ccccc1)NCc1ccccc1Cl (configuration not stated) [Clobenzorex hydrochloride] | > 45.8 | > 45.8 |
| CCOC(=O)c1cncn1[C@H](C)c1ccccc1 [Etomidate] | > 45.8 | > 45.8 |
| c1ccc2c(c1)Nc1ccccc1S2 [Phenothiazine] | > 45.8 | > 45.8 |
